Source: patent publication US20240173432A1, “Compositions and Methods for Treatment of Myotonic Dystrophy Type 1 with CRISPR/SluCas9” (Vertex Pharmaceuticals Incorporated, priority 2021, published 2024)

How the values were obtained:
[1] = tested on: CUG foci in primary DM1 patient myoblasts; test: Dual-cut screening: FISH staining of CUG RNA foci; assay type: cell-based, human; conditions: sgRNA pair, primary DM1 patient myoblasts; for % of CUG foci free nuclei (DNA-PKi): 3 μM DNA-PKi Compound 6 for 48 hours; for % of CUG foci free nuclei (Vehicle): vehicle (DMSO)
Procedure, shortened: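 SluCas9 RNPs (protein:sgRNA 1:3; 20 pmol SluCas9 + 60 pmol sgRNA per guide, paired 1:1) nucleofected into primary DM1 patient myoblasts, then DMSO or 3 μM DNA-PKi Compound 6 for 48 h. At 72 h post-nucleofection cells fixed, FISH-stained with Cy3-PNA(CAG)5 probe plus anti-MBNL1 and Hoechst; % CUG foci-free nuclei by high-content confocal imaging.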

[2] = tested on: CTG repeat in the 3′ UTR of human DMPK gene; test: Dual-cut screening: CTG repeat excision efficiency by loss-of-signal ddPCR; assay type: cell-based; conditions: sgRNA pair, primary DM1 patient myoblasts; for Excision efficiency (by ddPCR): 3 μM DNA-PKi Compound 6 for 48 hours; for Excision efficiency by ddPCR (Vehicle): vehicle (DMSO)
Procedure: RNPs were assembled with recombinant SluCas9 protein and chemically modified sgRNAs at a ratio of 1:3 (protein:sgRNA). For SINGLE-cut screening, RNP complexes were assembled with 30 pmol of SluCas9 and 90 pmol of sgRNA in P5 Primary Cell Nucleofector Solution (Lonza). After incubation at room temperature for 20 minutes, 10 μL of RNP complex were mixed with two hundred thousand of primary myoblasts resuspended in 10 μL of P5 Nucleofector Solution. For DOUBLE-cut screening, RNP complexes were first assembled for individual sgRNAs with 20 pmol of SluCas9 protein and 60 pmol of sgRNAs in 5 μL of P5 Nucleofector Solution. After incubation at room temperature for 20 minutes, the two RNP complexes (one for upstream sgRNA and one for downstream sgRNA) were mixed at 1:1 ratio and then further mixed with two hundred thousand of primary myoblasts resuspended in 10 μL of P5 Nucleofector Solution.
The Nucleofector 96-well Shuttle System (Lonza) was used to deliver the SluCa9/sgRNA RNPs into primary DM1 patient myoblasts using the nucleofection program CM138. Following nucleofection, myoblasts from each well of nucleofection shuttle were split into six wells of the 96-well cell culture plate (Greiner, 655090) coated with matrigel. The first three wells were treated with DMSO for 48 hrs before changing to fresh myoblast growth medium, and the other three wells were treated with 3 μM of DNA-PKi Compound 6 for 48 hrs before changing to fresh myoblast growth medium. 72 hrs post nucleofection, two wells of DMSO-treated myoblasts and two wells of DNA-PKi-treated myoblasts from each nucleofection were harvested for genomic DNA extraction using the Kingfisher Flex purification system (Thermal Fisher), whereas one well of DMSO-treated myoblasts and one well of DNA-PKi-treated myoblasts were stained for RNA foci by FISH staining.
The primers and probes of ddPCR are designed using the online primer design software Primer3Plus (http://www.bioinformatics.nl/cgi-bin/primer3plus/primer3plus.cgi). In some embodiments, two target primers/probe sets were used to detect CTG repeat excision, and a reference primers/probe set were used to amplify a region located in Exon 1 of human DMPK gene and to serve as a reference control for the target sets. The 24 μL of ddPCR reaction consists of 12 μL of Supermix for Probes (no dUTP) (Bio-Rad Laboratories), 1 μL of Reference primers mix (21.6 μM), 1 μL of Reference probe (6 μM), 1 μL of Target primers mix (21.6 μM), 1 μL of Target probe (6 μM), and 8 μL of sample genomic DNA. Droplets were generated using probe oil with the QX200 Droplet Generator (Bio-Rad Laboratories). Droplets were transferred to a 96-well PCR plate, sealed and cycled in a C1000 deep well Thermocycler (Bio-Rad Laboratories) under the following cycling protocol: 1 cycle at 95° C. for 10 min; 40 cycles of 94° C. for 30 see, and 58° C. for 1 min; 1 cycle at 98° C. for 10 min (for enzyme inactivation). The cycled plate was then transferred and read in the FAM and HEX channels using the Bio-Rad QX200 Droplet Reader (Bio-Rad Laboratories). ddPCR analysis is performed with the Bio-Rad QuantaSoft Pro Software.
To assess the efficiency of SluCas9 sgRNA pairs for inducing CTG repeat excision, Dual-cut screening was performed in which individual SluCas9 sgRNAs and recombinant SluCas9 protein were assembled into ribonucleoprotein (RNP) and delivered into primary DM1 patient myoblasts. Nucleofected myoblasts were treated with either DMSO (vehicle) or 3 μM of DNA-dependent Protein Kinase Inhibitor (DNA-PKi) Compound 6 for 48 hours. 72 hours post-nucleofection, myoblasts were subjected to either genomic DNA isolation or RNA foci staining by fluorescence in situ hybridization (FISH).
CRISPR repeat excision efficiency was assessed for each of the 88 pairs (FIG. 8A-B and Table 5). CTG repeat excision efficiency percentages are shown for vehicle (DMSO; white bars) and with DNA-PKi (black bars) (FIG. 8B and Table 5).

Substance | % of CUG foci free nuclei (DNA-PKi) [1] [%] | % of CUG foci free nuclei (Vehicle) [1] [%] | Excision efficiency (by ddPCR) [2] | Excision efficiency by ddPCR (Vehicle) [2]
SluU06 + SluD100 (guide 1 TGTCTTCGACTCCGGGGCCCCG; guide 2 GTCCAGAGCTTTGGGCAGATGG; guide RNA; listed as DNA, chemistry not fully specified) | 87.37 | 64.95 | 65.68 | 40.89
SluU08 + SluD06 (guide 1 GCCCCGTTGGAAGACTGAGTGC; guide 2 CCAGGCTGAGGCCCTGACGTGG; guide RNA; listed as DNA, chemistry not fully specified) | 86.69 | 59.22 | 59.11 | 46.6
SluU08 + SluD14 (guide 1 GCCCCGTTGGAAGACTGAGTGC; guide 2 ATGGGCAAACTGCAGGCCTGGG; guide RNA; listed as DNA, chemistry not fully specified) | 82.09 | 56.37 | 63.05 | 45.12
SluU08 + SluD18 (guide 1 GCCCCGTTGGAAGACTGAGTGC; guide 2 TGGAGGATGGAACACGGACGGC; guide RNA; listed as DNA, chemistry not fully specified) | 90.44 | 67.06 | 63.55 | 50.56
SluU08 + SluD32 (guide 1 GCCCCGTTGGAAGACTGAGTGC; guide 2 CTTGTGCATGACGCCCTGCTCT; guide RNA; listed as DNA, chemistry not fully specified) | 90.91 | 74.1 | 73.0215 | 50.87
SluU08 + SluD34 (guide 1 GCCCCGTTGGAAGACTGAGTGC; guide 2 CGCGCCAGACGCTCCCCAGAGC; guide RNA; listed as DNA, chemistry not fully specified) | 91.15 | 77.93 | 69.47 | 58.11
SluU08 + SluD48 (guide 1 GCCCCGTTGGAAGACTGAGTGC; guide 2 GAGAGCAGCGCAAGTGAGGAGG; guide RNA; listed as DNA, chemistry not fully specified) | 87.63 | 64.93 | 55.92 | 42.14
SluU08 + SluD56 (guide 1 GCCCCGTTGGAAGACTGAGTGC; guide 2 CCAGCCGGCTCCGCCCGCTTCG; guide RNA; listed as DNA, chemistry not fully specified) | 83.74 | 46.21 | 52.26 | 32.16
SluU08 + SluD68 (guide 1 GCCCCGTTGGAAGACTGAGTGC; guide 2 CCTGTAGCCTGTCAGCGAGTCG; guide RNA; listed as DNA, chemistry not fully specified) | 88.24 | 65.1 | 62.56 | 42.63
SluU08 + SluD73 (guide 1 GCCCCGTTGGAAGACTGAGTGC; guide 2 CCAAAACGTGGATTGGGGTTGT; guide RNA; listed as DNA, chemistry not fully specified) | 89.94 | 65.42 | 67.61 | 50.12
SluU08 + SluD83 (guide 1 GCCCCGTTGGAAGACTGAGTGC; guide 2 GTGGGGACAGACAATAAATACC; guide RNA; listed as DNA, chemistry not fully specified) | 90.38 | 68.14 | 70.46 | 45.64
SluU08 + SluD100 (guide 1 GCCCCGTTGGAAGACTGAGTGC; guide 2 GTCCAGAGCTTTGGGCAGATGG; guide RNA; listed as DNA, chemistry not fully specified) | 88.59 | 66.31 | 66.38 | 41.65
SluU10 + SluD06 (guide 1 CCCGTTGGAAGACTGAGTGCCC; guide 2 CCAGGCTGAGGCCCTGACGTGG; guide RNA; listed as DNA, chemistry not fully specified) | 86.35 | 61.37 | 63.05 | 48.58
SluU10 + SluD14 (guide 1 CCCGTTGGAAGACTGAGTGCCC; guide 2 ATGGGCAAACTGCAGGCCTGGG; guide RNA; listed as DNA, chemistry not fully specified) | 84.04 | 62.95 | 61.58 | 43.14
SluU10 + SluD18 (guide 1 CCCGTTGGAAGACTGAGTGCCC; guide 2 TGGAGGATGGAACACGGACGGC; guide RNA; listed as DNA, chemistry not fully specified) | 89.08 | 71.69 | 60.59 | 51.55
SluU10 + SluD32 (guide 1 CCCGTTGGAAGACTGAGTGCCC; guide 2 CTTGTGCATGACGCCCTGCTCT; guide RNA; listed as DNA, chemistry not fully specified) | 90.08 | 77.29 | 72.52 | 48.62
SluU10 + SluD34 (guide 1 CCCGTTGGAAGACTGAGTGCCC; guide 2 CGCGCCAGACGCTCCCCAGAGC; guide RNA; listed as DNA, chemistry not fully specified) | 88.63 | 80.9 | 68.59 | 52.12
SluU10 + SluD48 (guide 1 CCCGTTGGAAGACTGAGTGCCC; guide 2 GAGAGCAGCGCAAGTGAGGAGG; guide RNA; listed as DNA, chemistry not fully specified) | 88.02 | 69.11 | 62.29 | 44.14
SluU10 + SluD56 (guide 1 CCCGTTGGAAGACTGAGTGCCC; guide 2 CCAGCCGGCTCCGCCCGCTTCG; guide RNA; listed as DNA, chemistry not fully specified) | 83.68 | 49.83 | 54.92 | 33.89
